The data set in a line: in vivo. The note with it: Sprague-Dawley, rat, po, 1.2 mg/kg.

This passage reports bioavailability results from ChEMBL document CHEMBL4229412, “Design, synthesis, in vitro and in vivo evaluation, and structure-activity relationship (SAR) discussion of novel dipeptidyl boronic acid proteasome inhibitors as orally available anti-cancer agents for the treatment of multiple myeloma and mechanism studies” (Bioorg Med Chem, 2018).

SMILES strings stand for the structures.

As usually defined, the bioavailability is dose-corrected exposure relative to a reference, in per cent. `CC(C)C[C@H](NC(=O)CNC(=O)c1cc(Cl)ccc1Cl)B(O)O` [IXAZOMIB] had a bioavailability of 27.8%.
